Source: paper PMC8523698, “Preclinical characterization of an intravenous coronavirus 3CL protease inhibitor for the potential treatment of COVID19” (Nature Communications, 2021)
Values joined by “and” are separate entries in the source; they are usually repeats but may differ in a detail not shown here. Identical values can stand only once.

Legend:
CYP3A4/5 = experiment: in vitro; settings: human, microsomes, pH 7.4, Percent of Control Activity
hERG channel = hERG channel (Homo sapiens, UniProt Q12809); experiment: hERG potassium channel current assay; settings: 300 µM vs projected Cmax at projected human efficacious dose
MDR1/P-gp = MDR1/P-gp (Homo sapiens, UniProt P08183); experiment: Transporter inhibition using membrane vesicles; settings: for % PGP Uptake Activity: uptake of N-methyl quinidine by MDR1, single replicates
[1] = Plasma protein binding by equilibrium dialysis; settings: for fraction unbound at 6 h, 5 uM / fraction unbound at 6 h: dog, plasma
CYP2C19 = CYP2C19 (Homo sapiens, UniProt P33261); experiment: Reversible CYP inhibition in human liver microsomes
[2] = CYP 3A4/5 (mdz), 30-Minute Preincubation
[3] = CYP 3A4/5 (mdz), Zero-Minute Preincubation
[4] = CYP 3A4/5 (tst), 30-Minute Preincubation
[5] = CYP 3A4/5 (tst), Zero-Minute Preincubation

CYP2C19, sequence (P33261 whole entry): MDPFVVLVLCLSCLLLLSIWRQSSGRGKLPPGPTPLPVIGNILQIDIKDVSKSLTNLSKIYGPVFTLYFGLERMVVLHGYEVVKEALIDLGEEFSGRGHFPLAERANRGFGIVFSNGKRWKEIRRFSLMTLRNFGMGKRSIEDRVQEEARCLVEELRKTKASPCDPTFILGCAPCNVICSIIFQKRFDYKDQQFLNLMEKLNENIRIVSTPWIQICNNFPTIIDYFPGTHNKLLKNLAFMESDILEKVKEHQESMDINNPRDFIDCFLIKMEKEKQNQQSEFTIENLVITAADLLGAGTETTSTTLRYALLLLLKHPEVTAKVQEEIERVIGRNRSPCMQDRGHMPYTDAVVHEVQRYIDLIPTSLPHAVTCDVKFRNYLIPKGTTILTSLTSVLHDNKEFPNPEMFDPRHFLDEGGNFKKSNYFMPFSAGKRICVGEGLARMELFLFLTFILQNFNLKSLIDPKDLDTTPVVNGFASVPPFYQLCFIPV
MDR1/P-gp, sequence (P08183 whole entry): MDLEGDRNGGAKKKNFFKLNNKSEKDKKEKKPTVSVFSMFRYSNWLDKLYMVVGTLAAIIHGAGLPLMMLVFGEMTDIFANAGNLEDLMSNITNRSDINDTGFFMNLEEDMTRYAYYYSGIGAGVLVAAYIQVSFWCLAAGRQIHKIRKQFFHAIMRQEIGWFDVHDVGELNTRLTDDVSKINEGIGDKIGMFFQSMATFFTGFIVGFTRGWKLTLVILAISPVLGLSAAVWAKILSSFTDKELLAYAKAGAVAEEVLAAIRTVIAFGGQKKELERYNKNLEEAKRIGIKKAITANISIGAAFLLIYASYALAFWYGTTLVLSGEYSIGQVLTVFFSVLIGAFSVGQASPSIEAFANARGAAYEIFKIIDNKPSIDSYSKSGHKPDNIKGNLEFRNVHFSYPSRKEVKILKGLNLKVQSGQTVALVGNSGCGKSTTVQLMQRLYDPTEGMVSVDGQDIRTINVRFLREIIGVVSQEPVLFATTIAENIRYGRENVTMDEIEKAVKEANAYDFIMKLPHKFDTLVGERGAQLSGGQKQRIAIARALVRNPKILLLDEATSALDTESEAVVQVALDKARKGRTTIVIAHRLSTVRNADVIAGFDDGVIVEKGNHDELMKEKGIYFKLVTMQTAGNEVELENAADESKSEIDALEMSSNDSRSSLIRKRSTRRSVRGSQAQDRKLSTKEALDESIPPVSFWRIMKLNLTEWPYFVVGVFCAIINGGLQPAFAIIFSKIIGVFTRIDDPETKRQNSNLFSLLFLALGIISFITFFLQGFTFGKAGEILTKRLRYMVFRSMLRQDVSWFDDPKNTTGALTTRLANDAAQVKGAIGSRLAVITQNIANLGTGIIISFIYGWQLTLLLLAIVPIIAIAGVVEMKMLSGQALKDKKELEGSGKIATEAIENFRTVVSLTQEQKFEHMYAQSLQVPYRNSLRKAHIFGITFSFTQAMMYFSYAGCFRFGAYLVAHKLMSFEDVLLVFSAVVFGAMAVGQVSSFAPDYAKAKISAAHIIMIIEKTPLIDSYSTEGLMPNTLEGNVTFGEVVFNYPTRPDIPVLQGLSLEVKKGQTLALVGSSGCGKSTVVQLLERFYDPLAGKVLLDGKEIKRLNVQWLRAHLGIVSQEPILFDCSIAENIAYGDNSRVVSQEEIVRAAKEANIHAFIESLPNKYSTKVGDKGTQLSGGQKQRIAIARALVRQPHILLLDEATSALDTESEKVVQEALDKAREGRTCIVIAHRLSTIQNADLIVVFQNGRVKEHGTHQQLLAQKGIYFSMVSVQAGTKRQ
hERG channel, sequence (Q12809 whole entry): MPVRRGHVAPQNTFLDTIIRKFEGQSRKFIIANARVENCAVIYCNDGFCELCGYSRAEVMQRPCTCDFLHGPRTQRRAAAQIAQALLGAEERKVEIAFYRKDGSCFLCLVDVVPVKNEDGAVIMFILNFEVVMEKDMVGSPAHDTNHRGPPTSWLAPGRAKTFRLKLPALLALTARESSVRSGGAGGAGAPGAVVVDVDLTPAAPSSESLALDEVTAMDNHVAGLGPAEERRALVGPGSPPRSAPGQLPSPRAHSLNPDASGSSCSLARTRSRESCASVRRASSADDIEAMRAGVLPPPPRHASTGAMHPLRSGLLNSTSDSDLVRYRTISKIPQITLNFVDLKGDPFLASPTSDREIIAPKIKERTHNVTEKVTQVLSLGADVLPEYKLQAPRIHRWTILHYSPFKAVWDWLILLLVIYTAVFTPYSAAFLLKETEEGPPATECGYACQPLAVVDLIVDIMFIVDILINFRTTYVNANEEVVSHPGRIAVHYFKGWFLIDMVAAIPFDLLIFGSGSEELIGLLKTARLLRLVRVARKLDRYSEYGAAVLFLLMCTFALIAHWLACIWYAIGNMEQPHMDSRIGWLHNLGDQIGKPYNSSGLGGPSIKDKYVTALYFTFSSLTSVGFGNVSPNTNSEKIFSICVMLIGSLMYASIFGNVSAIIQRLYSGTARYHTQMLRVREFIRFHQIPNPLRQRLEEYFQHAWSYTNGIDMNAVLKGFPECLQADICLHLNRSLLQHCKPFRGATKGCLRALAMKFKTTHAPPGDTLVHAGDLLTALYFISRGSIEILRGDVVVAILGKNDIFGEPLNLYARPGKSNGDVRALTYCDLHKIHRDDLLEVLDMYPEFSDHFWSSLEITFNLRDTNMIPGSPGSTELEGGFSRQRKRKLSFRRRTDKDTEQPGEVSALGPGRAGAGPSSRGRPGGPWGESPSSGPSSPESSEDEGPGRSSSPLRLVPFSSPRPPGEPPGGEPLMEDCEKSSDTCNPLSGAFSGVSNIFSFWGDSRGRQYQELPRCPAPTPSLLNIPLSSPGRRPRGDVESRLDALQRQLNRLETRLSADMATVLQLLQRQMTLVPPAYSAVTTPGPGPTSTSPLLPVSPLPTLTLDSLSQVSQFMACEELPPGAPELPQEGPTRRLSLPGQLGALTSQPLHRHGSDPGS

SMILES: COc1cccc2[nH]c(C(=O)N[C@@H](CC(C)C)C(=O)N[C@@H](C[C@@H]3CCNC3=O)C(=O)CO)cc12 [PF-00835231]
- activity at 0.1 µM (CYP3A4/5; CYP 3A4/5 (mdz), 0.1 µM, 30-Minute Preincubation): 97.8%
- activity at 0.1 µM (CYP3A4/5; CYP 3A4/5 (mdz), 0.1 µM, Zero-Minute Preincubation): 95.2%
- activity at 0.214 µM (CYP3A4/5; CYP 3A4/5 (mdz), 0.214 µM, 30-Minute Preincubation): 121%
- activity at 0.214 µM (CYP3A4/5; CYP 3A4/5 (mdz), 0.214 µM, Zero-Minute Preincubation): 98.7%
- activity at 0.979 µM (CYP3A4/5; CYP 3A4/5 (mdz), 0.979 µM, 30-Minute Preincubation): 99.8%
- activity at 0.979 µM (CYP3A4/5; CYP 3A4/5 (mdz), 0.979 µM, Zero-Minute Preincubation): 95.5%
- activity at 2.09 µM (CYP3A4/5; CYP 3A4/5 (mdz), 2.09 µM, 30-Minute Preincubation): 99.7%
- activity at 2.09 µM (CYP3A4/5; CYP 3A4/5 (mdz), 2.09 µM, Zero-Minute Preincubation): 97.6%
- activity at 4.48 µM (CYP3A4/5; [2]): 101%
- activity at 4.48 µM (CYP3A4/5; [3]): 110%
- activity at 20.5 µM (CYP3A4/5; [2]): 88.2%
- activity at 20.5 µM (CYP3A4/5; [3]): 108%
- activity at 43.8 µM (CYP3A4/5; [2]): 77.3%
- activity at 43.8 µM (CYP3A4/5; [3]): 101%
- activity at 93.5 µM (CYP3A4/5; [2]): 64.9%
- activity at 93.5 µM (CYP3A4/5; [3]): 107%
- activity at 200 µM (CYP3A4/5; [3]): 104%
- activity at 30 min, 0.1 µM (CYP3A4/5; CYP 3A4/5 (tst), 0.1 µM, 30-Minute Preincubation): 87.1%
- activity at 0.1 µM (CYP3A4/5; CYP 3A4/5 (tst), 0.1 µM, Zero-Minute Preincubation): 103%
- activity at 0 min, 0.214 µM (CYP3A4/5; CYP 3A4/5 (tst), 0.214 µM, Zero-Minute Preincubation): 102%
- activity at 30 min, 0.979 µM (CYP3A4/5; CYP 3A4/5 (tst), 0.979 µM, 30-Minute Preincubation): 97.6%
- activity at 0 min, 2.09 µM (CYP3A4/5; CYP 3A4/5 (tst), 2.09 µM, Zero-Minute Preincubation): 98.1%
- activity at 4.48 µM (CYP3A4/5; [4]): 101%
- activity at 20.5 µM (CYP3A4/5; [4]): 83.2%
- activity at 20.5 µM (CYP3A4/5; [5]): 75.8%
- activity at 43.8 µM (CYP3A4/5; [4]): 55.5%
- activity at 43.8 µM (CYP3A4/5; [5]): 79.9%
- activity at 93.5 µM (CYP3A4/5; [5]): 74.9%
- activity at 200 µM (CYP3A4/5; [4]): 24.3%
- hERG margin in reference to projected unbound human Cmax (hERG channel): 600 fold
- IC50 (MDR1/P-gp; IC50, N-methyl quinidine (0.2 µM)): 65.6 µM
- IC50 at […] (MDR1/P-gp; human, human MDR1 (P-gp) membrane vesicles, pH 7.4, probe N-methyl quinidine (0.2 µM), IC50, N-methyl quinidine (0.2 µM)): > 20 µM
- % PGP Uptake Activity (MDR1/P-gp; inhibitor concentration 0.0732 uM): 93.3145% and 114.451% and 106.12%
- % PGP Uptake Activity (MDR1/P-gp; inhibitor concentration 0.2930 uM): 78.5035% and 118.154% and 104.268%
- % PGP Uptake Activity (MDR1/P-gp; inhibitor concentration 1.1719 uM): 118.617% and 114.451%
- % PGP Uptake Activity (MDR1/P-gp; inhibitor concentration 4.6875 uM): 113.525% and 107.354% and 108.897%
- % PGP Uptake Activity (MDR1/P-gp; inhibitor concentration 18.7500 uM): 94.703% and 96.0915% and 89.1489%
- % PGP Uptake Activity (MDR1/P-gp; inhibitor concentration 300.0000 uM): 17.0995% and 14.0139% and 11.9619%
- fraction unbound at 6 h, 5 uM ([1]; Beagle, pH 7.4, Fraction unbound, Geomean, Dog plasma, 5.0 uM, n 12): 0.416
- fraction unbound at 6 h, 5 uM ([1]; Beagle, pH 7.4, Individual fraction unbound, Dog Beagle plasma, 5.0 uM, replicates Day 1-3): 0.401
- Individual fraction unbound ([1]; Dog Beagle plasma, 5.0 uM, replicates Day 1-3): 0.386 and 0.435 and 0.45 and 0.406 and 0.488 and 0.451 and 0.403 and 0.342 and 0.444 and 0.382 and 0.419
- fraction unbound at 6 h ([1]; pH 7.4, Plasma fu, Vdss input): 0.416
- fraction unbound at 6 h ([1]; pH 7.4, Unbound fraction fu (%CV), dog plasma): 0.416
- fraction unbound at 6 h, 5 uM ([1]; pH 7.4, fraction unbound Geomean, dog plasma, 5.0 uM, n=12): 0.416
- Percent of Control Activity (CYP2C19; CYP 2C19, 0.1 µM, Zero-Minute Preincubation, 0.1 µM): 97.1% and 93.1%
- Percent of Control Activity (CYP2C19; CYP 2C19, 0.214 µM, 30-Minute Preincubation, 0.214 µM): 94.5% and 97.7%
- Percent of Control Activity (CYP2C19; CYP 2C19, 0.214 µM, Zero-Minute Preincubation, 0.214 µM): 96.9% and 95.6%
- Percent of Control Activity (CYP2C19; CYP 2C19, 0.979 µM, Zero-Minute Preincubation, 0.979 µM): 91.0% and 93.6%
- Percent of Control Activity (CYP2C19; CYP 2C19, 2.09 µM, 30-Minute Preincubation, 2.09 µM): 78.6% and 76.3%
- Percent of Control Activity (CYP2C19; CYP 2C19, 2.09 µM, Zero-Minute Preincubation, 2.09 µM): 89.4% and 88.4%
- Percent of Control Activity (CYP2C19; CYP 2C19, 4.48 µM, 30-Minute Preincubation, 4.48 µM): 87.7% and 90.1%
- Percent of Control Activity (CYP2C19; CYP 2C19, 4.48 µM, Zero-Minute Preincubation, 4.48 µM): 88.9% and 87.5%
- Percent of Control Activity (CYP2C19; CYP 2C19, 20.5 µM, 30-Minute Preincubation, 20.5 µM): 82.9% and 81.5%
- Percent of Control Activity (CYP2C19; CYP 2C19, 20.5 µM, Zero-Minute Preincubation, 20.5 µM): 89.8% and 81.5%
- Percent of Control Activity (CYP2C19; CYP 2C19, 43.8 µM, 30-Minute Preincubation, 43.8 µM): 68.7%
- Percent of Control Activity (CYP2C19; CYP 2C19, 43.8 µM, Zero-Minute Preincubation, 43.8 µM): 83.4% and 80.9%
- Percent of Control Activity (CYP2C19; CYP 2C19, 93.5 µM, 30-Minute Preincubation, 93.5 µM): 66.6% and 74.6%
